Data from patent publication US8778643B2, “Methods for increasing lipid levels and producing triacylglycerols in algae” (priority 2012, dated 2014).
Where a name gives a salt, the structure may show the parent alone. Read-outs that look alike come from different tables or passages of the source.

Tests used:
[1] = tested on: Phaeodactylum tricornutum; assay: Microplate assay: growth (absorbance 680 nm) and intracellular lipids (Nile Red fluorescence); assay type: cell-based; settings: for % change in abs / % in NR fl / % Inc / Nile Red Fluorescence % Increase: P. tricornutum; for % Inc: increase of lipid production; for Nile Red Fluorescence % Increase: compounds tested at 200 nM, initial screening, p<0.05
Description: (§1) Stock cultures were aerated by stirring with bubbling air (homemade manifold with Petco air pump, 2-4% CO2) or by orbital shaking (Thermo Scientific MAXQ 2000) at a constant speed of 150 rpm at 22±3° C. with a 16:8 hour light/dark cycle. Stocks were kept at stationary phase for use. Algae were prepared as dictated by culture center.
(§2) Compounds were selected based on reported biological activity in non-microalgae organisms. To ensure that compounds retained their quality, they were stored under advised conditions after purchasing from the manufacturer. Solutions of all assay compounds were prepared as 10 mM stock solutions by dissolving in DMSO in 2-dram amber vials and then stored in darkness −20° C. 96-well PCR plates were used to create a stock plate layout that was then transferred to the algae microplates. A plate map was used to distribute each compound to a well based on molecule name, collection number, and CAS number. For 20 μM and 200 nM assay plates, 10 mM compound stock in DMSO was diluted into plate maps of 5 mM and 50 μM assay stocks, respectively.
(§3) All materials for assay experiments were autoclaved before each use to maintain axenic algae cultures. Algae species were checked for homogeneity using a TS-100 light microscope (Nikon, Japan). […] Diluted stock solutions were made immediately prior to use for consistency and optimal plate growth. Cell density was measured on a Thermo Scientific Genesys 10S Vis Spectrophotometer (ThermoFisher, San Jose), using a 1 mL cuvette at 680 nm.
(§4) Plates were originally run in triplicate, before replicates were increased to quadruplicate, along with a separate control plate to compare growth. Due to extensive evaporation in exterior wells over time, our unique algae plate layout was designed to use the 60 interior wells out of 96 wells for the experiment. The 36 outer wells were filled with Millipore water and media to prevent evaporation and edge effects in the inner algae wells, as well as serve as blanks. The 60 wells with algae contained a total volume of 251 μL (100 μL of media+DMSO compound stock +150 μL dilute algae stock). For 20 μM and 200 nM assay plates, 10 mM compound stock in DMSO is diluted into plate maps of 5 mM and 50 μM assay stocks, respectively. […] Plates were parafilmed during growth to limit the amount of evaporation that can occur. Plates were numbered, and numerically ordered to ensure they got the same shaker space.
(§5) The shakers are kept at a constant shaking of 150 rpm. Ambient temperature is 22±3° C.

[2] = tested on: Nannochloris sp.; assay: as above; assay type: cell-based; settings: for Absorbance (percent increase) / Nile Red percent increase: initial microplate screen, relative to control
Description: as §1, §2, §3, §4, §5

[3] = tested on: Nannochloropsis salina; settings: for Nile Red percent increase: dose-response microplate screen; for % Inc: increase of lipid production; for % Inc / Nile Red Fluorescence % Increase / % Lipid increase based on Nile red fluorescence intensity / % Increase based on Nile Red Fluorescence Intensity / % change in abs / % in NR fl: N. salina; for Nile Red Fluorescence % Increase: compounds tested at 20 μM, initial screening, p<0.05; for % Lipid increase based on Nile red fluorescence intensity: DMSO, t=day 0; for % Increase based on Nile Red Fluorescence Intensity: DMSO delivery, added t=day 0
[4] = Nannochloris sp., compounds tested at 200 nM, initial screening, p<0.05
[5] = Nannochloris sp., compounds tested at 20 μM, initial screening, p<0.05
[6] = Nannochloris sp., 49 nM, dissolved in water, added t=day 0
[7] = 200 nM, initial microplate screen, relative to control

## CCCCCCCCCCCCCCCC(=O)C(F)(F)F [PTFK, 1,1,1-Trifluoro-2-heptadecanone]
[1]; 13 nM
  % change in abs: 3.22%
  % in NR fl: 70.44%
[1]; 41.2 nM
  % change in abs: 5.05%
  % in NR fl: 67.59%

## Indole acetic acid
[2]
  Nile Red Fluorescence % Increase: 95.4%

## C/C=C/C/C=C/CCC(=O)[C@H]1O[C@H]1C(N)=O [Cerulenin, (2R,3S)-3-[(4E,7E)-Nona-4,7-dienoyl]oxirane-2-carboxamide]
[2]; 200 nM
  Absorbance (percent increase): −13.2%
  Nile Red percent increase: 94.6%
[2]; [4]
  Nile Red Fluorescence % Increase: 107.9%

## CCC(C)Nc1ccc(NC(C)CC)cc1 (stereo not drawn) [N,N′-di-sec-butyl-p-phenylenediamine, 1-N,4-N-di(butan-2-yl)benzene-1,4-diamine]
[1]; best conc. 156 nM
  % Inc: 39.51%

## CCNc1cc(N[C@H]2CC[C@H](O)CC2)nc(Nc2ccc3c(ccn3Cc3ccccc3)c2)n1 [CDK4 I4, trans-4-((6-(ethylamino)-2-((1-(phenylmethyl)-1H-indol-5-yl)amino)-4-pyrimidinyl)amino)-cyclohexanol]
[3]; 40 μM
  Nile Red percent increase: 144%
[3]; best conc. 40 μM
  % Inc: 144.22%

## CC(C)Cc1ccc(C(C)C(=O)O)cc1 (stereo not drawn) [Ibuprofen]
[2]; [5]
  Nile Red Fluorescence % Increase: 80.2%
[3]
  Nile Red Fluorescence % Increase: 59.0%

## O=C1NC(=O)c2c1c1c3ccccc3[nH]c1c1[nH]c3cc(Br)ccc3c21 [CDK4 I1, 2-Bromo-12,13-dihydro-5H-indolo[2,3-a]pyrrolo[3,4-c]carbazole-5,7(6H)-dione]
[1]; 40 μM, dose-response microplate screen
  Nile Red percent increase: 129%
[1]; best conc. 10 μM
  % Inc: 68.76%
[3]; 40 μM
  % Lipid increase based on Nile red fluorescence intensity: 49%
  % Increase based on Nile Red Fluorescence Intensity: 49%

## COc1ccc2[nH]cc(CCNC(C)=O)c2c1 [Melatonin, N-Acetyl-5-methoxytryptamine]
[1]; best conc. 40 μM
  % Inc: 47.80%

## COc1ccc2c(c1)c(CC(=O)O)c(C)n2C(=O)c1ccc(Cl)cc1 [Indomethacin, 1-(4-Chlorobenzoyl)-5-methoxy-2-methyl-3-indoleacetic acid]
[2]; [6]
  % Increase based on Nile Red Fluorescence Intensity: 81%
[3]; 55 nM
  Nile Red percent increase: 118%
[3]; 123.5 nM
  % Lipid increase based on Nile red fluorescence intensity: 61%
  % Increase based on Nile Red Fluorescence Intensity: 61%

## Cn1c(=O)c2c(ncn2C)n(C)c1=O [Caffeine, 1,3,7-trimethyl-1H-purine-2,6(3H,7H)-dione]
[2]; 200 nM
  Absorbance (percent increase): −7.5%
  Nile Red percent increase: 60.4%

## NC(=O)c1cccc(-c2cccc(OC(=O)NC3CCCCC3)c2)c1 [FAAH Inhibitor II, 3′-Carbamoyl-biphenyl-3-yl-cyclohexylcarbamate]
[2]
  % Increase based on Nile Red Fluorescence Intensity: 167%
[2]; Nannochloris sp., 0.6 nM, (water), t=day 0
  % Lipid increase based on Nile red fluorescence intensity: 182%
[2]; Nannochloris sp., 0.2 nM, dissolved in water, added t=day 0
  % Increase based on Nile Red Fluorescence Intensity: 145%
[2]; Nannochloris sp., 0.6 nM, dissolved in water, added t=day 0
  % Increase based on Nile Red Fluorescence Intensity: 182%
[2]; [6]
  % Increase based on Nile Red Fluorescence Intensity: 154%
[2]; Nannochloris sp., 1.3 μM, dissolved in water, added t=day 0
  % Increase based on Nile Red Fluorescence Intensity: 144%

## O=C1Cc2c([nH]c3ccc(Br)cc23)-c2ccccc2N1 [Kenpaulllone]
[2]; [4]
  Nile Red Fluorescence % Increase: 84.2%

## CC/C=C\CC1C(=O)CCC1CC(=O)OC (stereo not drawn) [Methyl jasmonate]
[3]; 13 nM
  % Lipid increase based on Nile red fluorescence intensity: 85%
  % Increase based on Nile Red Fluorescence Intensity: 85%

## O=C1C(Cl)=C(NCCN2CCOCC2)C(=O)c2ncccc21 [CDC25]
[2]; [4]
  Nile Red Fluorescence % Increase: 28.2%
[2]; [5]
  Nile Red Fluorescence % Increase: 130.9%

## c1ccc(CNc2ncnc3[nH]cnc23)cc1 [Benzylamino Purine]
[1]; best conc. 40 μM
  % Inc: 120.94%

## CN(NO)C1=CC(=O)C(=O)C=C1 [3,4-dephostatin, 4-[(hydroxyamino)-methylamino]cyclohexa-3,5-diene-1,2-dione]
[1]; 0.0252-165.6 nM (H2O)
  % increase (lipid production): 5-46%
[1]; 0.0252-165.6 nM, not marked H2O
  % increase (lipid production): 12-33%
[3]; 0.0252-55.2 nM
  % increase (lipid production): 8-40%
[3]; 0.0252-165.6 nM (H2O)
  % increase (lipid production): 14-72%

## O=c1cc(-c2ccc(O)cc2)oc2cc(O)cc(O)c12 [Apigenin, 5,7-Dihydroxy-2-(4-hydroxyphenyl)-4H-1-benzopyran-4-one]
[2]; 20 μM
  Absorbance (percent increase): −7.3%
  Nile Red percent increase: 59.9%
[2]; [5]
  Nile Red Fluorescence % Increase: 136.7%
[3]
  Nile Red Fluorescence % Increase: 34.3%
[3]; best conc. 39 nM
  % Inc: 90.17%

## c1ccc2ncncc2c1 [Quinazoline, Benzopyrimidine]
[1]; 4-40 μM (H2O)
  % increase (lipid production): 15-26 (H2O) %
[3]; […]-40 μM
  % increase (lipid production): (none)

## COc1ccc2cc([C@H](C)C(=O)O)ccc2c1 [Naproxen, (S)-(+)-2-(6-Methoxy-2-naphthyl)propionic acid]
[3]; best conc. 156 nM
  % Inc: 67.44%

## O=C(O)CC(O)(CC(=O)O)C(=O)O [Citric acid, 2-hydroxypropane-1,2,3-tricarboxylic acid]
[2]; 200 nM
  Absorbance (percent increase): −6.5%
  Nile Red percent increase: 55.41%

## C=C1C[C@]23C[C@@]1(O)CC[C@H]2[C@@]12C=C[C@H](O)[C@@](C)(C(=O)O1)[C@H]2[C@@H]3C(=O)O [Giberellic acid, (3S,3aS,4S,4aS,6S,8aR,8bR,11S)-6,11-Dihydroxy-3-methyl-12-methylene-2-oxo-4a,6-ethano-3,8bprop-1-enoperhydroindeno[1,2-b]furan-4-ca]
[2]; 200 nM
  Absorbance (percent increase): −1.1%
  Nile Red percent increase: 70.4%

## CC[C@H](CO)Nc1nc(NCc2ccccc2)c2ncn(C(C)C)c2n1 [Roscovitine]
[2]
  Nile Red Fluorescence % Increase: 30.8%

## Cc1ncc(C[n+]2csc(CCO)c2C)c(N)n1 [Thiamine, Aneurine hydrochloride, Vitamin B1 hydrochloride]
[2]; 200 nM
  Absorbance (percent increase): −12.1%
  Nile Red percent increase: 122.6%

## CC(=O)N1CCN(c2ccc(OC[C@H]3CO[C@](Cn4ccnc4)(c4ccc(Cl)cc4Cl)O3)cc2)CC1 (relative stereo) [Ketoconazole, cis-1-Acetyl-4-[4-[[2-(2,4-dichlorophenyl)-2-(1H-imidazol-1-ylmethyl)-1,3-dioxolan-4-yl]methoxy]phenyl]piperazine]
[2]; [4]
  Nile Red Fluorescence % Increase: 258.9%
[3]
  Nile Red Fluorescence % Increase: 32.0%

## Oc1cc(O)c2c(c1)O[C@H](c1ccc(O)c(O)c1)[C@@H](O)C2 [(+)-Catechin, (2R,3S)-2-(3,4-dihydroxyphenyl)-3,4-dihydro-2H-chromene-3,5,7-triol]
[3]; best conc. 39 nM
  % Inc: 84.21%

## CCNc1nc(Cl)nc(NC(C)C)n1 [Atrazane, 1-Chloro-3-ethylamino-5-isopropylamino-2,4,6-triazine]
[2]; 200 nM
  Absorbance (percent increase): −1.7%
  Nile Red percent increase: 86.2%

## O=C(Oc1ccc([N+](=O)[O-])cc1)N1CCC(C(O)(c2ccc3c(c2)OCO3)c2ccc3c(c2)OCO3)CC1 [JZL 184 hydrate, 4-nitrophenyl-4-[bis(1,3-benzodioxol-5-yl)(hydroxy)methyl]piperidine-1-carboxylate]
[3]; 3.3 μM
  % change in abs: −12.15%
  % in NR fl: 95.70%
[3]; 10 μM
  % change in abs: 13.75%
  % in NR fl: 86.72%
[3]; 40 μM
  % change in abs: 0.61%
  % in NR fl: 118.99%
  % Lipid increase based on Nile red fluorescence intensity: 119%
  % Increase based on Nile Red Fluorescence Intensity: 119%

## CC/C=C\C[C@H]1C(=O)CC[C@@H]1CC(=O)O [Jasmonic acid, (1R,2R)-3-Oxo-2-(2Z)-2-pentenyl-cyclopentaneacetic acid]
[2]; 200 nM
  Absorbance (percent increase): −7.6%
  Nile Red percent increase: 87.5%
[2]; [4]
  Nile Red Fluorescence % Increase: 80.5%

## O=c1c(-c2ccc(O)cc2)coc2cc(O)cc(O)c12 [Genistein, 5,7-Dihydroxy-3-(4-hydroxyphenyl)chromen-4-one]
[1]; 54 nM-40 μM (H2O)
  % increase (lipid production): 16-70%
[3]; […]-40 μM
  % increase (lipid production): 11-85%

## O=c1c(O)c(-c2ccc(O)c(O)c2)oc2cc(O)cc(O)c12 [Quercetin, 2-(3,4-dihydroxyphenyl)-3,5,7-trihydroxy-4H-chromen-4-one]
[2]; 200 nM
  Absorbance (percent increase): −1.6%
  Nile Red percent increase: 63.5%

## O=C1O[C@H]([C@@H](O)CO)C(O)=C1O [Ascorbic acid, (2R)-2-[(1S)-1,2-dihydroxyethyl]-3,4-dihydroxy-2H-furan-5-one]
[1]; best conc. 10 nM
  % Inc: 57.28%

## c1ccc(CNc2ncnc3nc[nH]c23)cc1 [Benzylaminopurine, N-(phenylmethyl)-7H-purin-6-amine]
[1]; [7]
  Absorbance (percent increase): −14.6%
  Nile Red percent increase: 105.9%
[1]
  Nile Red Fluorescence % Increase: 105.9%

## c1coc(CNc2ncnc3nc[nH]c23)c1 [Kinetin, N^6-furfuryladenine]
[1]
  Nile Red Fluorescence % Increase: 25.2%
[1]; best conc. 39 nM
  % Inc: 76.29%
[2]; 200 nM
  Absorbance (percent increase): −9.0%
  Nile Red percent increase: 72.4%

## O=C1Cc2c([nH]c3ccc(Br)cc23)-c2ccccc2N1 [Kenpaullone, 9-Bromo-7,12-dihydro-indolo[3,2-d][1]benzazepin-6(5H)-one]
[2]; 200 nM
  Absorbance (percent increase): −8.1%
  Nile Red percent increase: 77.5%
[2]; [5]
  Nile Red Fluorescence % Increase: 97.7%
[3]
  Nile Red Fluorescence % Increase: 34.8%
